# Results taken from US11739101B2, “Bifunctional degraders of hematopoietic progenitor kinase and therapeutic uses thereof” (Nurix Therapeutics, Inc., priority 2020, dated 2023).
# Target: T1, HPK1 (Homo sapiens, UniProt Q92918)
# T1 construct: A HiBiT tag was introduced by CRISPR on the N terminus of HPK1 in Jurkat cells; host or cells: Jurkat (ATCC TIB-152), monoclonal CRISPR HiBiT knock-in line
# Experiment: HPK1 Cellular HiBiT Degradation Assay
# Assay type: cell-based
# Conditions: HiBiT-tagged HPK1 Jurkat cells, 24 hours, 10 uM to 0.1 nM; Dmax = 100 minus lowest % HPK1 remaining vs DMSO vehicle
# Procedure, shortened: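 Dmax is derived from four-parameter curves of % HPK1 remaining, as 100 minus the lowest value, normalized to DMSO-treated cells with parental Jurkat background subtracted. HiBiT-HPK1 knock-in Jurkat cells got compound for 24 hours (final 10 uM to 0.1 nM, 11 points) before lytic HiBiT luminescence. Cytotoxicity was checked on parallel CellTiter-Glo plates.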
# T1 sequence (Q92918 whole entry): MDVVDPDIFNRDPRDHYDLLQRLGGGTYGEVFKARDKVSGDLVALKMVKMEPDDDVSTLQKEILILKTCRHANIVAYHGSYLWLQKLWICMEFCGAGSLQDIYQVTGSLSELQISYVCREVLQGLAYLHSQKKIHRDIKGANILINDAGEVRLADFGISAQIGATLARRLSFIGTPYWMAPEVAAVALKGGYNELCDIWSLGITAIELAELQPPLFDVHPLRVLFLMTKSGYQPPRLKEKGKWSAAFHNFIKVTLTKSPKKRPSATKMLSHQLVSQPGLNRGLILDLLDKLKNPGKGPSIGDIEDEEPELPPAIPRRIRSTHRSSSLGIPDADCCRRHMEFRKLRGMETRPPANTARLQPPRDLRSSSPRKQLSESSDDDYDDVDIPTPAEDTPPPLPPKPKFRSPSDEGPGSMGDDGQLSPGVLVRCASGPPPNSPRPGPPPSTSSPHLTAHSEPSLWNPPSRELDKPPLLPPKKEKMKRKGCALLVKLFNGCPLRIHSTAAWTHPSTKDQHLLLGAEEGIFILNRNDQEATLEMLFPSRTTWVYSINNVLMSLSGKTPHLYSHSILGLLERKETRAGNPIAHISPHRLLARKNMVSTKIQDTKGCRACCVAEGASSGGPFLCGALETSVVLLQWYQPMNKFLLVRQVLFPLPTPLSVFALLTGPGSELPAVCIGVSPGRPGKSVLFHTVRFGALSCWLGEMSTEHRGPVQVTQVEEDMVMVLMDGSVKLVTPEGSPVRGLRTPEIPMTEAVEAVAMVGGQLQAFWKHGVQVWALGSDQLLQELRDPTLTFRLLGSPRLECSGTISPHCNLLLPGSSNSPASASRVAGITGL
Compound,Dmax [%],Cellular HPK1 HiBiT: Dmax (%)
"Cc1cc(F)c(Nc2nc(-c3ccc4c(c3)N([C@H]3C[C@@H](N5CCCCC5)C3)C(=O)C43CCN(C(=O)C4CCN(C(=O)[C@H]5CC[C@@H](Nc6cccc7c6C(=O)N(C6CCC(=O)NC6=O)C7=O)CC5)C4)CC3)cc3ncn(C(C)C)c23)cc1C(=O)NC(C)C (stereo partly drawn) [Example 27, 4-fluoro-2-methyl-5-[(6-{2-oxo-1-[(1s,3s)-3-(piperidin-1-yl)cyclobutyl]-1′-[1-[(1S,4S)-4-({2-[2,6-dioxopiperidin-3-yl]-1,3-dioxo-2,3-dihydro-1H-isoindol-4-yl}amino)cyclohexanecarbonyl]pyrrolidine-3-carbonyl]-1,2-dihydrospiro[indole-3,4′-piperidin]-6-yl}-3-(propan-2-yl)-3H-imidazo[4,5-c]pyridin-4-yl)amino]-N-(propan-2-yl)benzamide]",< 45,
"CC(=O)N1CCC2(CC1)C(=O)N([C@H]1C[C@@H](N3CCC[C@@H](C(=O)NCCCCCCCOc4cc(-c5scnc5C)ccc4CNC(=O)[C@@H]4C[C@@H](O)CN4C(=O)[C@@H](NC(=O)C4(F)CC4)C(C)(C)C)C3)C1)c1cc(-c3cc4ncn(C(C)C)c4c(Nc4cc(C(=O)NC(C)C)c(C)cc4F)n3)ccc12 [Example 16, (R)-1-((1s,3s)-3-(1′-acetyl-6-(4-((2-fluoro-5-(isopropylcarbamoyl)-4-methylphenyl)amino)-3-isopropyl-3H-imidazo[4,5-c]pyridin-6-yl)-2-oxospiro[indoline-3,4′-piperidin]-1-yl)cyclobutyl)-N-(7-(2-(((2S,4R)-1-((S)-2-(1-fluorocyclopropane-1-carboxamido)-3,3-dimethylbutanoyl)-4-hydroxypyrrolidine-2-carboxamido)methyl)-5-(4-methylthiazol-5-yl)phenoxy)heptyl)piperidine-3-carboxamide]",< 45,
"Cc1cc(F)c(Nc2nc(-c3ccc4c(c3)N(C3CC(N5CCCCC5)C3)C(=O)C43CCN(C(=O)CCCCCCCCCC(=O)N[C@H](C(=O)N4C[C@H](O)C[C@H]4C(=O)N[C@@H](C)c4ccc(-c5scnc5C)cc4)C(C)(C)C)CC3)cc3ncn(C(C)C)c23)cc1C(=O)NC(C)C (stereo partly drawn) [Example 8, (2S,4R)-1-((S)-2-(11-(6-(4-((2-fluoro-5-(isopropylcarbamoyl)-4-methylphenyl)amino)-3-isopropyl-3H-imidazo[4,5-c]pyridin-6-yl)-2-oxo-1-((1s,3s)-3-(piperidin-1-yl)cyclobutyl)spiro[indoline-3,4′-piperidin]-1′-yl)-11-oxoundecanamido)-3,3-dimethylbutanoyl)-4-hydroxy-N—((S)-1-(4-(4-methylthiazol-5-yl)phenyl)ethyl)pyrrolidine-2-carboxamide]",,A (A>65%)
"Cc1cc(F)c(Nc2nc(-c3ccc4c(c3)N([C@H]3C[C@@H](N5CCCCC5)C3)C(=O)C43CCN(C(=O)CC4CCCN(CC5CCN(c6ccc7c(c6)C(=O)N(C6CCC(=O)NC6=O)C7=O)C5)C4)CC3)cc3ncn(C(C)C)c23)cc1C(=O)NC(C)C (stereo partly drawn) [Example 29, 5-{[6-(1′-{2-[(3S)-1-({1-[2-(2,6-dioxopiperidin-3-yl)-1,3-dioxo-2,3-dihydro-1H-isoindol-5-yl]pyrrolidin-3-yl}Methyl)piperidin-3-yl]acetyl}-2-oxo-1-[(1s,3s)-3-(piperidin-1-yl)cyclobutyl]-1,2-dihydrospiro[indole-3,4′-piperidin]-6-yl)-3-(propan-2-yl)-3H-imidazo[4,5-c]pyridin-4-yl]amino}-4-fluoro-2-methyl-N-(propan-2-yl)benzamide]",45 to 65,
"Cc1cc(F)c(Nc2nc(-c3ccc4c(c3)N([C@H]3C[C@@H](N5CCCCC5)C3)C(=O)C43CCN(C(=O)C4CCN(C(=O)[C@H]5CC[C@H](N(C)c6cccc7c6C(=O)N(C6CCC(=O)NC6=O)C7=O)CC5)CC4)CC3)cc3ncn(C(C)C)c23)cc1C(=O)NC(C)C (stereo partly drawn) [Example 66, 4-fluoro-2-methyl-5-{[6-(2-oxo-1′-{1-[(1R,4R)-4-({2-[2,6-dioxopiperidin-3-yl]-1,3-dioxo-2,3-dihydro-1H-isoindol-4-yl}(methyl)amino)cyclohexanecarbonyl]piperidine-4-carbonyl}-1-[(1s,3s)-3-(piperidin-1-yl)cyclobutyl]-1,2-dihydrospiro[indole-3,4′-piperidin]-6-yl)-3-(propan-2-yl)-3H-imidazo[4,5-c]pyridin-4-yl]amino}-N-(propan-2-yl)benzamide]",> 65,
"Cc1cc(F)c(Nc2nc(-c3ccc4c(c3)N([C@H]3C[C@@H](N5CCCCC5)C3)C(=O)C43CCN(C(=O)CN4CCN(c5ccc(CC(=O)NCCNc6cccc7c6C(=O)N(C6CCC(=O)NC6=O)C7=O)cc5)CC4)CC3)cc3ncn(C(C)C)c23)cc1C(=O)NC(C)C (stereo partly drawn) [Example 44, 5-({6-[1′-(2-{4-[4-({[2-({2-[2,6-dioxopiperidin-3-yl]-1,3-dioxo-2,3-dihydro-1H-isoindol-4-yl}amino)ethyl]carbamoyl}methyl)phenyl]piperazin-1-yl}acetyl)-2-oxo-1-[(1s,3s)-3-(piperidin-1-yl)cyclobutyl]-1,2-dihydrospiro[indole-3,4′-piperidin]-6-yl]-3-(propan-2-yl)-3H-imidazo[4,5-c]pyridin-4-yl}amino)-4-fluoro-2-methyl-N-(propan-2-yl)benzamide]",45 to 65,
"Cc1cc(F)c(Nc2nc(-c3ccc4c(c3)N([C@H]3C[C@@H](N5CCCCC5)C3)C(=O)C43CCN(C(=O)C4CCN(C(=O)CC5CCN(c6cccc7c6C(=O)N(C6CCC(=O)NC6=O)C7=O)CC5)CC4)CC3)cc3ncn(C(C)C)c23)cc1C(=O)NC(C)C (stereo partly drawn) [Example 36, 5-{[6-(1′-{1-[2-(1-{2-[2,6-dioxopiperidin-3-yl]-1,3-dioxo-2,3-dihydro-1H-isoindol-4-yl}piperidin-4-yl)acetyl]piperidine-4-carbonyl}-2-oxo-1-[(1s,3s)-3-(piperidin-1-yl)cyclobutyl]-1,2-dihydrospiro[indole-3,4′-piperidin]-6-yl)-3-(propan-2-yl)-3H-imidazo[4,5-c]pyridin-4-yl]amino}-4-fluoro-2-methyl-N-(propan-2-yl)benzamide]",< 45,
"Cc1cc(F)c(Nc2nc(-c3ccc4c(c3)N([C@H]3C[C@@H](N5CCCCC5)C3)C(=O)C43CCN(C(=O)c4cnn(C[C@H]5CC[C@H](Nc6cccc7c6C(=O)N(C6CCC(=O)NC6=O)C7=O)CC5)c4)CC3)cc3ncn(C(C)C)c23)cc1C(=O)NC(C)C (stereo partly drawn) [Example 70, 4-fluoro-2-methyl-5-({6-[2-oxo-1′-(1-{[(1R,4R)-4-({2-[2,6-dioxopiperidin-3-yl]-1,3-dioxo-2,3-dihydro-1H-isoindol-4-yl}amino)cyclohexyl]methyl}-1H-pyrazole-4-carbonyl)-1-[(1s,3s)-3-(piperidin-1-yl)cyclobutyl]-1,2-dihydrospiro[indole-3,4′-piperidin]-6-yl]-3-(propan-2-yl)-3H-imidazo[4,5-c]pyridin-4-yl}amino)-N-(propan-2-yl)benzamide]",45 to 65,
"Cc1cc(F)c(Nc2nc(-c3ccc4c(c3)N([C@H]3C[C@@H](N5CCCCC5)C3)C(=O)C43CCN(C(=O)CC4CCCN(CC5CCN(c6cccc7c6C(=O)N(C6CCC(=O)NC6=O)C7=O)C5)C4)CC3)cc3ncn(C(C)C)c23)cc1C(=O)NC(C)C (stereo partly drawn) [Example 31, 5-{[6-(1′-{2-[(3S)-1-{[1-{2-[2,6-dioxopiperidin-3-yl]-1,3-dioxo-2,3-dihydro-1H-isoindol-4-yl}pyrrolidin-3-yl]methyl}piperidin-3-yl]acetyl}-2-oxo-1-[(1s,3s)-3-(piperidin-1-yl)cyclobutyl]-1,2-dihydrospiro[indole-3,4′-piperidin]-6-yl)-3-(propan-2-yl)-3H-imidazo[4,5-c]pyridin-4-yl]amino}-4-fluoro-2-methyl-N-(propan-2-yl)benzamide]",> 65,
